In test [1] the test system is human anaplastic large cell lymphoma cell Karpas 299. Briefly: ALK gene fusion cell proliferation inhibition test (CCK-8). The settings on record: 72 hours incubation, CCK-8, absorbance at 450 nm. It counts as cell-based. The procedure:
The 96-well culture plate was placed in a 5 % carbon dioxide incubator at 37 °C to be cultured overnight. A test compound was formulated into a 10 mM storage solution with DMSO, and the 10mM storage solution was gradually diluted with DMSO at a dilution ration of 1:4 to obtain 9 concentration gradients of solutions of the test compound. The test compound was diluted with culture medium to 5 times the set final concentration of corresponding action, and the diluted solution of the test compound was added at 25 µL/well to corresponding cell wells according to the set compound layout, and then incubated in a 5 % carbon dioxide incubator at 37 °C for 72 hours. After 72 hours, 10 µL of CCK-8 was added into a cell culture medium, and the culture solution was sucked from adherent cells, then a freshly prepared CCK-8 detection solution was added and the cells were incubated in a 37 °C incubator for 1-4 hours. The absorbance at 450 nm wavelength on the SpectraMax i3X Microplate Reader was measured after gently shaking, with the absorbance at 650 nm as a reference.

For test [2], the target named is T1, ALK kinase (Homo sapiens, UniProt Q9UM73).
T1 construct: purchased Thermo Scientific
Description: ALK kinase inhibition test. To be noted: 0.4 ng/well ALK kinase, 5 µM ATP, fluorescence 665 nm/615 nm. It is filed as biochemical. The method, then: The inhibitory activity of the compound in the present application on ALK kinase will be determined through in vitro tests, which can be represented by IC50 value.
4 µL of the diluted solution of the test compound and 2 µL of 0.4 ng/well ALK kinase solution (Thermo Scientific) were added into reaction wells in turn, incubated for 10 min at room temperature, then 4 µL of 0.7 µM biotin-labeled tyrosine kinase substrate and 5 µM ATP solution were added to start the kinase reaction.
Software Graphpad Prism 6 was used to fit an IC50 curve and calculate an IC50 value.

T1 sequence (Q9UM73 19-1620): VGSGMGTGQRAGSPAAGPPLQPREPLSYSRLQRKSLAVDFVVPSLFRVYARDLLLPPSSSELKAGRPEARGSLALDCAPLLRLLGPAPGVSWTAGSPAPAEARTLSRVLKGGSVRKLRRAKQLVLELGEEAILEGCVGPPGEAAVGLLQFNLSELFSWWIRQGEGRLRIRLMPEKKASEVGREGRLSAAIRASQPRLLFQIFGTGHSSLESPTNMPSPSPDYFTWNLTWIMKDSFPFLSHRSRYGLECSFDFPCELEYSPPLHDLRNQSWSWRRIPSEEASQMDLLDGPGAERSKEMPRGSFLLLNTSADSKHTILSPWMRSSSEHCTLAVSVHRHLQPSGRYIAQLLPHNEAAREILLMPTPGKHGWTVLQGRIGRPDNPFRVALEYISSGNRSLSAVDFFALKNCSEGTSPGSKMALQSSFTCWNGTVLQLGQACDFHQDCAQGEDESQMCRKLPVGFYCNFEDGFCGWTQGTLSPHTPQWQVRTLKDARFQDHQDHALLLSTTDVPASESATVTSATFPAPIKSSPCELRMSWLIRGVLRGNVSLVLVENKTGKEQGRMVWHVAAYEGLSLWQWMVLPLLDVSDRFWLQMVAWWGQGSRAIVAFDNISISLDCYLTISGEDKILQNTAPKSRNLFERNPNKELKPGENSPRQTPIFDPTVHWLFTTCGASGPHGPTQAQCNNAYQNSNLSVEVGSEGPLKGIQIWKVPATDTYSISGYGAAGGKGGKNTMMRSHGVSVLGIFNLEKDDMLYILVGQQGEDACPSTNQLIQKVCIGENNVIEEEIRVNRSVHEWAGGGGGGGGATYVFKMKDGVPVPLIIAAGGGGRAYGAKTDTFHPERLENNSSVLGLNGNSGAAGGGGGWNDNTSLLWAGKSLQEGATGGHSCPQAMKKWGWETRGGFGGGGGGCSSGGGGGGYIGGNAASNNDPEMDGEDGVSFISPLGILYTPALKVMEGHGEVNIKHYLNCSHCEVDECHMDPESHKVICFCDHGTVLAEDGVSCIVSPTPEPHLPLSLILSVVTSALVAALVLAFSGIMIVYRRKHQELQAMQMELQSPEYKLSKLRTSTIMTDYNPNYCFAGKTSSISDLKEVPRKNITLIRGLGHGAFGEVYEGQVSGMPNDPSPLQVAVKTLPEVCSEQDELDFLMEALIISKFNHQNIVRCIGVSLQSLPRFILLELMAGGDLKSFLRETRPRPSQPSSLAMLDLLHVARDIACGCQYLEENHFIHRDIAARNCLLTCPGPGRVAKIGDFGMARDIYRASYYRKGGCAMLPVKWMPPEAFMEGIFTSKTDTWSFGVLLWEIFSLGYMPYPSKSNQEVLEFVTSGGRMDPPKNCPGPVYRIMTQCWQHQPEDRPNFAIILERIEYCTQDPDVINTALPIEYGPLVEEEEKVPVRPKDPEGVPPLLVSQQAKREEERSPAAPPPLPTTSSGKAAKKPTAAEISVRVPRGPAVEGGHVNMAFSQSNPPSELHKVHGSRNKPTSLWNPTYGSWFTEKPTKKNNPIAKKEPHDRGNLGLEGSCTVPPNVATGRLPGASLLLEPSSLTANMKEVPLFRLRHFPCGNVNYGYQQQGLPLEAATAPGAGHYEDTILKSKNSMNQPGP

`C#Cc1ccc2c3c([nH]c2c1)C(C)(C)c1cc(N2CCC(N4CCOCC4)CC2)c(C#N)cc1C3=O` [Example E12, 3-ethynyl-6,6-dimethyl-8-(4-morpholinopiperidin-1-yl)-11-oxo-6,11-dihydro-5H-benzo[b]carbazole-9-carbonitrile]: the IC50 is 8.71 nM in test [1] and 6.78 nM in test [2].
For `C#Cc1ccc2c3c([nH]c2c1)C(C)(C)c1cc(N2CCN(C)CC2)c(C#N)cc1C3=O` [Example E13, 3-ethynyl-6,6-dimethyl-8-(4-methylpiperazin-1-yl)-11-oxo-6,11-dihydro-5H-benzo[b]carbazole-9-carbonitrile], the IC50 is 7.52 nM in test [1] and 5.76 nM in test [2].
As for `C#Cc1ccc2c3c([nH]c2c1)C(C)(C)c1cc(N2CCC(N4CCCC4)CC2)c(C#N)cc1C3=O` [Example E14, 3-ethynyl-6,6-dimethyl-11-oxo-8-(4-(pyrrolidin-1-yl)piperidin-1-yl)-6,11-dihydro-5H-benzo[b]car bazole-9-carbonitrile], the IC50 came to 11.4 nM in test [1] and 6.51 nM in test [2].
The matching figures for `C#Cc1ccc2c3c([nH]c2c1)C(C)(C)c1cc(N2CCC(N(C)C)CC2)c(C#N)cc1C3=O` [Example E15, 8-(4-(dimethylamino)piperidin-1-yl)-3-ethynyl-6,6-dimethyl-11-oxo-6,11-dihydro-5H-benzo[b]car bazole-9-carbonitrile]: 8.29 nM and 4.62 nM.
Regarding `C#Cc1ccc2c3c([nH]c2c1)C(C)(C)c1cc(N2CCC(N4CCN(C)CC4)CC2)c(C#N)cc1C3=O` [Example E16, 3-ethynyl-6,6-dimethyl-8-(4-(4-methylpiperazin-1-yl)piperidin-1-yl)-11-oxo-6,11-dihydro-5H-ben zo[b]carbazole-9-carbonitrile], the IC50 in test [1] worked out at 3.27 nM; in test [2], 5.7 nM.
For the compound `C#Cc1ccc2c3c([nH]c2c1)C(C)(C)c1cc(N2CCN(C4CC4)CC2)c(C#N)cc1C3=O` [Example E17, 8-(4-cyclopropylpiperazin-1-yl)-3-ethynyl-6,6-dimethyl-11-oxo-6,11-dihydro-5H-benzo[b]carbazole-9-carbonitrile], the values for the IC50 in test [1] and in test [2] were 33.2 nM and 49 nM, respectively.
The matching figures for `C#Cc1ccc2c3c([nH]c2c1)C(C)(C)c1cc(N2CCC(N4CCN(C5CC5)CC4)CC2)c(C#N)cc1C3=O` [Example E18, 8-(4-(4-cyclopropylpiperazin-1-yl)piperidin-1-yl)-3-ethynyl-6,6-dimethyl-11-oxo-6,11-dihydro-5 H-benzo[b]carbazole-9-carbonitrile]: 1.71 nM and 10.3 nM.
On to `C#Cc1ccc2c3c([nH]c2c1)C(C)(C)c1cc(N2CCN(C)CC2)c(Cl)cc1C3=O` [Example E19, 9-chloro-3-ethynyl-6,6-dimethyl-8-(4-methylpiperazin-1-yl)-5,6-dihydro-11H-benzo[b]carbazol-1 1-one], for which the results for the IC50 in test [1] and in test [2] were 11.7 nM and 3.73 nM, respectively.
For `C#Cc1ccc2c3c([nH]c2c1)C(C)(C)c1cc(N2CCN(C4CC4)CC2)c(Cl)cc1C3=O` [Example E20, 9-chloro-8-(4-cyclopropylpiperazin-1-yl)-3-ethynyl-6,6-dimethyl-5,6-dihydro-11H-benzo[b]carbazol-11-one], the concentration for half-maximal inhibition (IC50) in test [1] is 55.9 nM; in test [2], 40.1 nM.
`C#Cc1ccc2c3c([nH]c2c1)C(C)(C)c1cc(N2CCC(N(C)C)CC2)c(Cl)cc1C3=O` [Example E21, 9-chloro-8-(4-(dimethylamino)piperidin-1-yl)-3-ethynyl-6,6-dimethyl-5,6-dihydro-11H-benzo[b]c arbazol-11-one]: the results for the IC50 in test [1] and in test [2] were 10.4 nM and 12.7 nM, respectively.
For the compound `C#Cc1ccc2c3c([nH]c2c1)C(C)(C)c1cc(N2CCC(N4CCN(C)CC4)CC2)c(Cl)cc1C3=O` [Example E22, 9-chloro-3-ethynyl-6,6-dimethyl-8-(4-(4-methylpiperazin-1-yl)piperidin-1-yl)-5,6-dihydro-11H-be nzo[b]carbazol-11-one], the IC50 came to 4.67 nM in test [1] and 13.5 nM in test [2].
The matching figures for `C#Cc1ccc2c3c([nH]c2c1)C(C)(C)c1cc(N2CCC(N4CCOCC4)CC2)c(Cl)cc1C3=O` [Example E23, 9-chloro-3-ethynyl-6,6-dimethyl-8-(4-morpholinopiperidin-1-yl)-5,6-dihydro-11H-benzo[b]carbazol-11-one]: 22.2 nM and 2.61 nM.
Taken in the same sequence, the figures for `C#Cc1ccc2c3c([nH]c2c1)C(C)(C)c1cc(N2CCNCC2)c(Cl)cc1C3=O` [Example E24, 9-chloro-3-ethynyl-6,6-dimethyl-8-(piperazin-1-yl)-5,6-dihydro-11H-benzo[b]carbazol-11-one] were 18.2 nM and 3.29 nM.
Consider `C#Cc1ccc2c3c([nH]c2c1)C(C)(C)c1cc(N2CCC(N4CCC4)CC2)c(Cl)cc1C3=O` [Example E25, 8-(4-(azetidin-1-yl)piperidin-1-yl)-9-chloro-3-ethynyl-6,6-dimethyl-5,6-dihydro-11H-benzo[b]car bazol-11-one], for which the IC50 in test [1] turned out to be 53 nM; in test [2] it was 49.9 nM.
For the compound `CCc1cc2c(cc1N1CCC(N3CCOCC3)CC1)C(C)(C)c1[nH]c3cc(C#CC4CC4)ccc3c1C2=O` [Example E26, 3-(cyclopropylethynyl)-9-ethyl-6,6-dimethyl-8-(4-morpholinopiperidin-1-yl)-5,6-dihydro-11H-be nzo[b]carbazol-11-one], the figures for the IC50 in test [1] and in test [2] were 20.6 nM and 38.4 nM, respectively.
Taken in the same sequence, the figures for `CC#Cc1ccc2c3c([nH]c2c1)C(C)(C)c1cc(N2CCC(N4CCOCC4)CC2)c(CC)cc1C3=O` [Example E27, 9-ethyl-6,6-dimethyl-8-(4-morpholinopiperidin-1-yl)-3-(prop-1-yn-1-yl)-5,6-dihydro-11H-benzo[b]carbazol-11-one] were 110 nM and 10.2 nM.
Taken in the same sequence, the figures for `C#Cc1ccc2c3c([nH]c2c1)C(C)(C)c1cc(N2CCC(NC)CC2)c(C#N)cc1C3=O` [Example E28, 3-ethynyl-6,6-dimethyl-8-(4-(methylamino)piperidin-1-yl)-11-oxo-6,11-dihydro-5H-benzo[b]carb azole-9-carbonitrile] were 5 nM and 2.62 nM.

The record behind these values is EP4321514B1, “COMPOUND HAVING ALK INHIBITORY ACTIVITY, PREPARATION METHOD THEREFOR AND USE THEREOF” (CGeneTech (Suzhou, China) Co., Ltd., priority 2021, dated 2022).
